# Measurements: patent US20240101542A1, “ERAP INHIBITORS” (UNIVERSITE DE LILLE, priority 2020, published 2024)
# Columns and labels:
# ERAP2 = ERAP2 (Homo sapiens (Human), UniProt Q6P179); test: In vitro ERAP activity assay, ERAP2 with R-AMC substrate; assay type: biochemical; parameters: IC50 on ERAP2 using R-AMC as substrate: scale not given here; conditions: for IC50 / IC50 on ERAP2 using R-AMC as substrate: R-AMC as substrate; for IC50: read-out: IC50 on ERAP2 using R-AMC as substrate
# Description: (§1) The enzymatic activity of ERAP1 or 2 was assayed using L-AMC (L-Leucine-7-amido-4-methylcoumarin hydrochloride) or R-AMC (L-Arginine-7-amido-4-methylcoumarin hydrochloride) respectively. Hepes at 50 mM with 100 mM NaCl at pH 7 was used as buffer. Briefly, 60 nL of test compounds were added in 384-wells plates (dark, non-binding surface) by acoustic dispensing with nanoacoustic dispenser Echo (Labcyte) and pre-incubated 30 minutes at ambient temperature with 10 μL of ERAP 0.8 μg/mL or 1 μg/mL or vehicle. The reaction was then started with the addition of 10 μL of substrate at 10 μM. The final concentration of ERAP, substrate and DMSO was 0.5 μg/mL, 5 μM and 0.4% respectively. For the kinetic readout a Victor 3V (Perkin-Elmer) was used with excitation at 380 nm and emission at 450 nm. The fluorescence was measured each 3 minutes during one hour.
# (§2) The Z and Z′ factors were calculated according to J.-H. Zhang, T. D. Y. Chung, K. R. Oldenburg, A Simple Statistical Parameter for Use in Evaluation and Validation of High Throughput Screening Assays, J. Biomol. Screen., 4 (1999) 67-73. Data analysis was performed using Xlfit® v 5.0 or GraphPad Prism® v 4.0.
# (§3) Percentages of inhibition at different concentrations were obtained as described above and IC50s were carried out as 8-point dose response curves and reported as the average of at least three independent measurements. […] Data analysis was performed using Xlfit® v 5.0 or GraphPad Prism® v 4.0. Nonlinear curve fitting and statistical analysis was done using built-in functions.
# ERAP1 = ERAP1 (Homo sapiens (Human), UniProt Q9NZ08); test: In vitro ERAP activity assay, ERAP1 with L-AMC substrate; assay type: biochemical; conditions: L-AMC as substrate; read-out: IC50 on ERAP1 or ERAAP using L-AMC as substrate
# Sequence of ERAP1 (Q9NZ08 whole entry): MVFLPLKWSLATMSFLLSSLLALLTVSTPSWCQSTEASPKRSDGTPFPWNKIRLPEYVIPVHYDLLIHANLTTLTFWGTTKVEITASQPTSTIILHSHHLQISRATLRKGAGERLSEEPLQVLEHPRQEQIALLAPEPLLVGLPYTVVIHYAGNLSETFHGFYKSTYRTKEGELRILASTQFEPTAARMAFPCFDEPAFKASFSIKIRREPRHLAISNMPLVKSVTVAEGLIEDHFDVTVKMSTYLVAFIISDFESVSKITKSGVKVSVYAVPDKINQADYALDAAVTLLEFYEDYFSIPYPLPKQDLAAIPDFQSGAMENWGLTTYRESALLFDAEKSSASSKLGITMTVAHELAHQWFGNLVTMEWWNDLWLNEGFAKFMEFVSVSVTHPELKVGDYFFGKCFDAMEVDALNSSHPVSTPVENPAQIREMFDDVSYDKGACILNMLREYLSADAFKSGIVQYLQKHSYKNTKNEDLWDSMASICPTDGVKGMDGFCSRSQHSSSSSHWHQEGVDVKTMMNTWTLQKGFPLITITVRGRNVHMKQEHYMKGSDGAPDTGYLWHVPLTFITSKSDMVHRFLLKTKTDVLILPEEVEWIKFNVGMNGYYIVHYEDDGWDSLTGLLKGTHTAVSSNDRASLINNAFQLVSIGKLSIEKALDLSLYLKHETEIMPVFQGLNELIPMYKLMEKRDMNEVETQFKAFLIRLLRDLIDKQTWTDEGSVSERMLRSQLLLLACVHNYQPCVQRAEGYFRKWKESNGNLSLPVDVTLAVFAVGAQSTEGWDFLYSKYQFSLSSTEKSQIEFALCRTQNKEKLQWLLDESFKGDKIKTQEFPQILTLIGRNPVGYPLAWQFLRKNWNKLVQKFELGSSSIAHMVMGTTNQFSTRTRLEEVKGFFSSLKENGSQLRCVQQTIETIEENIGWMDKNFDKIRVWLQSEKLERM
# Description: as §1, §2, §3
# Sequence of ERAP2 (Q6P179 whole entry): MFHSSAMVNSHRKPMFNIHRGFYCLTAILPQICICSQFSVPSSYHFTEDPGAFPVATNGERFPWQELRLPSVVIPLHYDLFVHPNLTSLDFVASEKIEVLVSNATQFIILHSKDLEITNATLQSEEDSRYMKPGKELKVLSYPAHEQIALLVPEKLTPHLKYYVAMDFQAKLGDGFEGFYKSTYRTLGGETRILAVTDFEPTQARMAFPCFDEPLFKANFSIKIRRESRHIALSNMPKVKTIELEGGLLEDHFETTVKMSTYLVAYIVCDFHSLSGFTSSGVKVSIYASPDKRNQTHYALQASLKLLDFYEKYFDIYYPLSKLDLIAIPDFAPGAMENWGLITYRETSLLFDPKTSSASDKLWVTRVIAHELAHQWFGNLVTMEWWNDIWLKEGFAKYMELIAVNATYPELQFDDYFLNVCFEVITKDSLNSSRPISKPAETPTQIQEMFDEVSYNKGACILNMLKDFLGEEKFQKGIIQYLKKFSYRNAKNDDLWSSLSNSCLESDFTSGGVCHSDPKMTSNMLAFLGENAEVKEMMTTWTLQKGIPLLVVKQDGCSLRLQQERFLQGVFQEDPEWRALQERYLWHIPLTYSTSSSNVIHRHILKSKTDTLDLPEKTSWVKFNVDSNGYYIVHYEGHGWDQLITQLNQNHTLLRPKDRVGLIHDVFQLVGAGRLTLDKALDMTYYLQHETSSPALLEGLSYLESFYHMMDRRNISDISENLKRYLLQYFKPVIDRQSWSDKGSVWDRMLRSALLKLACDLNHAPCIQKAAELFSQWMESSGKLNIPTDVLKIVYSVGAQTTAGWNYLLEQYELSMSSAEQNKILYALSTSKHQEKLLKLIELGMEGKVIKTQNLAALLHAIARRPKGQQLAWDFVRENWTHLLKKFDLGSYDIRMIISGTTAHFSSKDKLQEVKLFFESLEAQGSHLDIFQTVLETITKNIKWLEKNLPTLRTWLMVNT
"inhibition at 2000 µM (ERAP2; at 2 mM, ERAP1 or 2 activity assay, read-out: inhibition (reference inhibitor)) [%]",IC50 (ERAP2) [µM],IC50 (ERAP1) [µM],IC50 on ERAP2 using R-AMC as substrate (ERAP2),Compound
100,,,,"CC(C)C[C@H](NC(=O)[C@@H](O)[C@H](N)Cc1ccccc1)C(=O)O [Bestatin, reference compound]"
,> 5,,,O=C(C[C@@H](Cc1c[nH]c2ccccc12)n1cc(CNS(=O)(=O)c2ccc(-c3ccccc3)s2)nn1)NO [Compound 1]
,> 5,> 5,,O=C(NO)[C@@H](Cc1c[nH]c2ccccc12)n1cc(CNS(=O)(=O)c2ccc(-c3ccccc3)s2)nn1 [Compound 2]
,,> 5,+ +,CN(Cc1cn([C@@H](Cc2c[nH]c3ccccc23)C(=O)NO)nn1)S(=O)(=O)c1ccc(-c2ccccc2)s1 [Compound 3]
,> 5,> 5,,O=C(NO)[C@H](Cc1c[nH]c2ccccc12)n1cc(CNS(=O)(=O)c2ccc(-c3ccccc3)s2)nn1 [Compound 4]
,,> 5,+ +,O=C(NO)[C@H](Cc1c[nH]c2ccccc12)n1cc(CNS(=O)(=O)c2ccc(Br)s2)nn1 [Compound 5]
,,> 5,+ +,O=C(C[C@@H](Cc1ccc2ccccc2c1)n1cc(CNS(=O)(=O)c2ccc(-c3ccccc3)s2)nn1)NO [Compound 6]
,,,+ +,O=C(C[C@H](Cc1ccc(O)cc1)n1cc(CNS(=O)(=O)c2ccc(-c3ccccc3)s2)nn1)NO [Compound 7]
,,> 5,+ +,O=C(NO)[C@@H](Cc1ccc(O)cc1)n1cc(CNS(=O)(=O)c2ccc(-c3ccccc3)s2)nn1 [Compound 8]
,> 5,,,CN(Cc1cn([C@H](CC(=O)NO)Cc2ccc(O)cc2)nn1)S(=O)(=O)c1ccc(-c2ccccc2)s1 [Compound 9]
,,> 5,+ +,O=C(NO)[C@H](Cc1ccc(O)cc1)n1cc(CNS(=O)(=O)c2ccc(-c3ccccc3)s2)nn1 [Compound 10]
,,,+ +,CNC(=O)c1ccc(-c2ccc(S(=O)(=O)NCc3cn([C@@H](Cc4ccc(O)cc4)C(=O)NO)nn3)s2)cc1 [Compound 11]
,,> 5,+ +,NCc1ccc(-c2ccc(S(=O)(=O)NCc3cn([C@@H](Cc4ccc(O)cc4)C(=O)NO)nn3)s2)cc1 [Compound 12]
,,> 5,+ +,CN(Cc1cn([C@@H](Cc2ccc(O)cc2)C(=O)NO)nn1)S(=O)(=O)c1ccc(-c2ccccc2)s1 [Compound 13]
,,> 5,+ +,O=C(NO)[C@H](Cc1ccc(O)cc1)n1cc(CNS(=O)(=O)c2ccc(Br)s2)nn1 [Compound 14]
,,> 5,+ +,O=C(NO)[C@H](Cc1ccc(O)cc1)n1cc(CNS(=O)(=O)c2cccs2)nn1 [Compound 15]
,,,+ +,Cc1ccc(S(=O)(=O)NCc2cn([C@@H](Cc3ccc(O)cc3)C(=O)NO)nn2)s1 [Compound 16]
,,> 5,+ +,O=C(NO)[C@H](Cc1ccc(O)cc1)n1cc(CNS(=O)(=O)c2ccsc2)nn1 [Compound 17]
,,,+ +,O=C(NO)[C@H](Cc1ccc(O)cc1)n1cc(CNS(=O)(=O)c2sccc2Br)nn1 [Compound 18]
,,> 5,+ +,O=C(NO)[C@H](Cc1ccc(O)cc1)n1cc(CNS(=O)(=O)c2ccc(-c3ccccn3)s2)nn1 [Compound 19]
,,> 5,+ +,O=C(NO)[C@@H](Cc1ccc(O)cc1)n1cc(CNS(=O)(=O)c2ccc(-c3ccccn3)s2)nn1 [Compound 20]
,< 0.5,,,O=C(NO)[C@H](Cc1ccc(OC(F)(F)F)cc1)n1cc(CNS(=O)(=O)c2ccc(-c3ccccn3)s2)nn1 [Compound 21]
,< 0.5,,,O=C(NO)[C@H](Cc1ccc(OC(F)(F)F)cc1)n1cc(CNS(=O)(=O)c2ccc(-c3ccccc3)s2)nn1 [Compound 22]
,,> 5,,COc1ccc(C[C@@H](C(=O)NO)n2cc(CNS(=O)(=O)c3ccc(-c4ccccc4)s3)nn2)cc1 [Compound 24]
,< 0.5,,,CC(C)(C)Oc1ccc(C[C@@H](C(=O)NO)n2cc(CNS(=O)(=O)c3ccc(-c4ccccc4)s3)nn2)cc1 [Compound 26]
,< 0.5,,,CC(C)(C)Oc1ccc(C[C@@H](C(=O)NO)n2cc(CNS(=O)(=O)c3ccc(-c4ccccn4)s3)nn2)cc1 [Compound 27]
,< 0.5,< 5,,CNC(=O)c1ccc(-c2ccc(S(=O)(=O)NCc3cn([C@@H](Cc4ccc(OC)cc4)C(=O)NO)nn3)s2)cc1 [Compound 28]

"inhibition at 2000 µM (ERAP2; at 2 mM, ERAP1 or 2 activity assay, read-out: inhibition (reference inhibitor)) [%]",IC50 (ERAP2) [µM],IC50 (ERAP1) [µM],IC50 on ERAP2 using R-AMC as substrate (ERAP2),Compound
,< 0.5,,,O=C(NO)[C@H](Cc1ccc(O)cc1)n1cc(CNS(=O)(=O)c2ccc(-c3cccnc3)s2)nn1 [Compound 29]
,> 5,,,O=C(C[C@@H](Cc1c[nH]c2ccccc12)n1nncc1CNS(=O)(=O)c1ccc(-c2ccccc2)s1)NO [Compound 30]
,,,+ +,O=C(C[C@H](Cc1ccc(O)cc1)n1nncc1CNS(=O)(=O)c1ccc(-c2ccccc2)s1)NO [Compound 31]
,,,+ +,CN(Cc1cnnn1[C@H](CC(=O)NO)Cc1ccc(O)cc1)S(=O)(=O)c1ccc(-c2ccccc2)s1 [Compound 32]
,,> 5,,O=C(C[C@H](Cc1ccc(O)cc1)n1nncc1CNS(=O)(=O)c1ccc(-c2ccccn2)s1)NO [Compound 33]
,,,+ +,O=C(NO)[C@H](Cc1ccc(O)cc1)n1nncc1CNS(=O)(=O)c1ccc(-c2ccccc2)s1 [Compound 34]
,> 5,,,O=C(NO)[C@@H](Cc1ccc(O)cc1)n1nncc1CNS(=O)(=O)c1ccc(-c2ccccc2)s1 [Compound 35]
,< 0.5,> 5,,COc1ccc(C[C@@H](C(=O)NO)n2cc(CNS(=O)(=O)c3ccc(-c4ccncc4)s3)nn2)cc1 [Compound 36]
,< 0.5,> 5,,O=C(NO)[C@H](Cc1ccc2c(c1)OCO2)n1cc(CNS(=O)(=O)c2ccc(-c3ccccn3)s2)nn1 [Compound 37]
,< 0.5,,,COc1ccc(C[C@@H](C(=O)NO)n2cc(CNS(=O)(=O)c3ccc(-c4cccnc4)s3)nn2)cc1 [Compound 38]
,< 0.5,< 5,,O=C(NO)[C@H](Cc1ccc(O)c(Cl)c1)n1cc(CNS(=O)(=O)c2ccc(-c3ccccn3)s2)nn1 [Compound 39]
,< 0.5,> 5,,O=C(NO)[C@H](Cc1ccc(O)c(Cl)c1)n1cc(CNS(=O)(=O)c2ccc(-c3ccccc3)s2)nn1 [Compound 40]
,< 0.5,< 5,,COc1ccc(C[C@@H](C(=O)NO)n2cc(CNS(=O)(=O)c3ccc(-c4ccccn4)s3)nn2)cc1OC [Compound 41]
,< 0.5,< 0.5,,COc1ccc(C[C@@H](C(=O)NO)n2cc(CNS(=O)(=O)c3ccc(-c4ccccc4)s3)nn2)cc1OC [Compound 42]
,< 0.5,> 5,,CNC(=O)c1cccc(-c2ccc(S(=O)(=O)NCc3cn([C@@H](Cc4ccc(OC)cc4)C(=O)NO)nn3)s2)c1 [Compound 43]
,< 0.5,> 5,,O=C(NO)[C@H](Cc1ccc(O)c(F)c1)n1cc(CNS(=O)(=O)c2ccc(-c3ccccn3)s2)nn1 [Compound 44]
,< 0.5,> 5,,O=C(NO)[C@H](Cc1ccc(O)c(F)c1)n1cc(CNS(=O)(=O)c2ccc(-c3ccccc3)s2)nn1 [Compound 45]
,< 0.5,,,COc1ccc(C[C@@H](C(=O)NO)n2cc(CN(C)S(=O)(=O)c3ccc(-c4ccccn4)s3)nn2)cc1 [Compound 46]
,< 0.5,,,COc1ccc(C[C@@H](C(=O)NO)n2cc([C@H](C)NS(=O)(=O)c3ccc(-c4ccccn4)s3)nn2)cc1 [Compound 47]
,< 5,,,COc1ccc(C[C@@H](C(=O)NO)n2cc([C@@H](C)NS(=O)(=O)c3ccc(-c4ccccn4)s3)nn2)cc1 [Compound 48]
,< 0.5,> 5,,COc1cccc(C[C@@H](C(=O)NO)n2cc(CNS(=O)(=O)c3ccc(-c4ccccn4)s3)nn2)c1 [Compound 49]
,> 5,,,COc1ccccc1C[C@@H](C(=O)NO)n1cc(CNS(=O)(=O)c2ccc(-c3ccccn3)s2)nn1 [Compound 50]
,< 0.5,,,COCCOc1ccc(C[C@@H](C(=O)NO)n2cc(CNS(=O)(=O)c3ccc(-c4ccccn4)s3)nn2)cc1 [Compound 51]
,< 0.5,> 5,,COc1ccc(C[C@@H](C(=O)NO)n2cc(CNS(=O)(=O)c3ccc(-c4ccccn4)s3)nn2)cc1F [Compound 52]
,< 0.5,< 5,,COc1ccc(C[C@@H](C(=O)NO)n2cc(CNS(=O)(=O)c3ccc(-c4ccccn4)s3)nn2)cc1Cl [Compound 53]
,< 0.5,< 5,,C#Cc1ccc(C[C@@H](C(=O)NO)n2cc(CNS(=O)(=O)c3ccc(-c4ccccc4)s3)nn2)cc1 [Compound 54]
